Results taken from patent US11976280B2, “SMAC/Diablo inhibitors useful for treating cancer” (THE NATIONAL INSTITUTE FOR BIOTECHNOLOGY IN THE NEGEV LTD., priority 2017, dated 2024).
d = 2'-deoxy (DNA); r = 2'-OH (RNA)

System: A549 cells-derived tumors
Test: Next-generation sequencing (NGS) of si-NT- and si-hSMAC-A-treated tumors
Type: in vivo, human
Experimental: Libraries were prepared by the INCPM-RNA-seq unit (Weizmann Institute, Israel). Briefly, polyA fraction (mRNA) was purified from 500 ng of total RNA, isolated as above, followed by fragmentation and generation of double stranded cDNA. End repair, a base addition, adapter ligation and PCR amplification steps were performed according to established methods. Libraries were evaluated by Qubit and TapeStation. Sequencing libraries were constructed with barcodes to allow multiplexing of 20 samples in one lane. Between 22 and 26 million reads single-end 60-bp reads were sequenced per sample on Illumina HiSeq 2500 V4 instrument.
Bioinformatics analyses were carried out at the Bioinformatics Core Facility at the National Institute for Biotechnology in the Negev, Ben-Gurion University. Raw sequence reads were assessed for quality using FASTQC and further trimmed for removal of remaining adaptors and low quality bases using Trimmomatic. The trimmed reads from each sample were separately aligned to the human and mouse genomes (GRCh38 and GRCm38.75, respectively) using STAR v2.3.0 with default settings. An average of 23.7±0.8 million reads per sample was obtained. Of these, an average of 13, 2.6, 7.8 and 0.3 million reads were mapped to human only, mouse only, both human and mouse, and none of them, respectively. After rejection of multi-mapped reads, a total of 11.5±2.5 human-specific, uniquely mapped reads, and 2.3±1.7 mouse-specific, uniquely mapped reads were subjected for further analysis. The number of aligned reads per gene per sample were counted using HTSeq count with “intersection-nonempty” (to handle reads that overlap with more than one gene) and “no stranded” as parameters. The other parameters were set to their default. Normalization and statistical analysis for differential expression were carried out using DESeq2 v1.6.3. Fold change values were converted to linear scale, with a minus sign indicating down-regulation.
Differentially expressed genes were defined as those having a p-value<0.05, and linear fold change>1.5 and <−1.5. Functional analysis was performed using the Gene Ontology system, DAVID and Expander software tools.
NGS was used to investigate changes in patterns of gene expression in si-NT-TTs and si-hSMAC-A-TTs (FIG. 10, and Tables 3-5). […] As si-hSMAC is human-specific, any effect on mouse gene expression must be mediated by the human tumor cells.
The major functional groups were changes were seen are presented below.

[1] = vs si-NT-TTs, ENDOPLASMIC AND GOLGI LUMENS
[2] = vs si-NT-TTs, ENDOPLASMIC AND GOLGI LUMENS / METABOLISM RELATED ENZYMES
[3] = vs si-NT-TTs, ER AND MITOCHONDRIA
[4] = vs si-NT-TTs, EXTRACELLULAR MATRIX

## si-hSMAC-A: siRNA to human SMAC/Diablo; sense 5′AAGCGGUGUUUCUCAGAAUUGtt3′ (SEQ ID NO:20), antisense 5′AACAAUUCUGAGAAACCCGCtt3′ (SEQ ID NO:21) (sense AAGCGGUGUUUCUCAGAAUUGTT; antisense AACAAUUCUGAGAAACCCGCTT; sense: sugars from the 5' end r21 d2, backbone not given here; antisense: sugars from the 5' end r20 d2, backbone not given here)
NGS, si-hSMAC-A- vs si-NT-treated A549 cells-derived tumors, gene ACKR3
  Fold change, ACKR3-atypical chemokine receptor 3 gene expression: −2.2
NGS, si-hSMAC-A- vs si-NT-treated A549 cells-derived tumors, gene C5
  Fold change, C5-complement component 5 gene expression: −1.7
NGS, si-hSMAC-A- vs si-NT-treated A549 cells-derived tumors, gene C5AR1
  Fold change, C5AR1 (CD88)-complement component 5a receptor 1 gene expression: −1.7
NGS, si-hSMAC-A- vs si-NT-treated A549 cells-derived tumors, gene CCL24
  Fold change, CCL24-chemokine (C-C motif) ligand 24 gene expression: 1.9
NGS, si-hSMAC-A- vs si-NT-treated A549 cells-derived tumors, gene CCL28
  Fold change, CCL28-chemokine (C-C motif) ligand 28 gene expression: 1.9
NGS, si-hSMAC-A- vs si-NT-treated A549 cells-derived tumors, gene CD274
  Fold change, CD274-(PD-L1) molecule gene expression: −1.9
NGS, si-hSMAC-A- vs si-NT-treated A549 cells-derived tumors, gene CREB3L3
  Fold change, CREB3L3-CAMP responsive element binding protein 3-like 3 gene expression: 2.0
NGS, si-hSMAC-A- vs si-NT-treated A549 cells-derived tumors, gene CX3CL1
  Fold change, CX3CL1-chemokine (C-X3-C motif) ligand 1 gene expression: 1.6
NGS, si-hSMAC-A- vs si-NT-treated A549 cells-derived tumors, gene GAS6
  Fold change, GAS6-growth arrest-specific 6 gene expression: −1.7
NGS, si-hSMAC-A- vs si-NT-treated A549 cells-derived tumors, gene IL1R1
  Fold change, IL1R1-interleukin 1 receptor, type I gene expression: −1.6
NGS, si-hSMAC-A- vs si-NT-treated A549 cells-derived tumors, gene IL6
  Fold change, IL6-interleukin 6 gene expression: −2.5
NGS, si-hSMAC-A- vs si-NT-treated A549 cells-derived tumors, gene IL18BP
  Fold change, IL18BP-interleukin 18 binding protein gene expression: −1.6
NGS, si-hSMAC-A- vs si-NT-treated A549 cells-derived tumors, gene IL27RA
  Fold change, IL27RA-interleukin 27 receptor, alpha gene expression: −1.6
NGS, si-hSMAC-A- vs si-NT-treated A549 cells-derived tumors, gene IRF6
  Fold change, IRF6-interferon regulatory factor 6 gene expression: 1.6
NGS, si-hSMAC-A- vs si-NT-treated A549 cells-derived tumors, gene LBP
  Fold change, LBP-lipopolysaccharide binding protein gene expression: −2.1
NGS, si-hSMAC-A- vs si-NT-treated A549 cells-derived tumors, gene MRC2
  Fold change, MRC2 (ENDO180)-mannose receptor, C type 2 gene expression: −1.7
NGS, si-hSMAC-A- vs si-NT-treated A549 cells-derived tumors, gene OSMR
  Fold change, OSMR-oncostatin M receptor gene expression: −1.7
NGS, si-hSMAC-A- vs si-NT-treated A549 cells-derived tumors, gene PROC
  Fold change, PROC-protein C gene expression: 1.8
NGS, si-hSMAC-A- vs si-NT-treated A549 cells-derived tumors, gene PTGS2
  Fold change, PTGS2 (Cox-2)-prostaglandin-endoperoxide synthase 2 gene expression: −1.8
NGS, si-hSMAC-A- vs si-NT-treated A549 cells-derived tumors, gene TLR3
  Fold change, TLR3-toll-like receptor 3 gene expression: −1.7
NGS, si-hSMAC-A- vs si-NT-treated A549 cells-derived tumors, gene TNFAIP6
  Fold change, TNFAIP6 (TSG6) gene expression: −1.6
NGS, si-hSMAC-A- vs si-NT-treated A549 cells-derived tumors, gene TNFSF14
  Fold change, TNFSF14 (LIGHT) gene expression: −1.8
In vivo
  expression of genes associated with inflammation and the tumor microenvironment: reduction
  number of human genes down-regulated: ~242
  number of human genes up-regulated: about 186
Vs si-NT-TTs, CELL MEMBRANE
  Fold change ACKR3: −2.2 fold
  Fold change BAMBI: 1.7 fold
  Fold change C5AR1 (CD88): −1.7 fold
  Fold change CDH3: 1.7 fold
  Fold change CLDN4: 2.4 fold
  Fold change CLMP: −1.7 fold
  Fold change CNTNAP2: −1.8 fold
  Fold change DSC2: 1.6 fold
  Fold change EMP1: 1.8 fold
  Fold change ITGA1 (CD49a): −1.9 fold
  Fold change TNS1: −1.6 fold
[1]
  Fold change ABCC6: −2.3 fold
  Fold change AGR3: 4.1 fold
  Fold change AHCYL2: −1.7 fold
  Fold change BACE1: −1.5 fold
  Fold change CEMIP: −3.6 fold
  Fold change CHERP: −1.7 fold
  Fold change CLGN: −1.9 fold
  Fold change COX10-AS1: −2.1 fold
  Fold change CYP26B1: −1.8 fold
  Fold change FAM20A: −4.4 fold
  Fold change FOXRED2: −1.5 fold
  Fold change ITPR1: −1.7 fold
  Fold change NCK2: 2.0 fold
  Fold change P4HA3: −1.9 fold
  Fold change PCSK5: −2.3 fold
  Fold change PPAP2B: −1.8 fold
  Fold change PTGS2 (COX-2): −1.8 fold
  Fold change RIC3: −2.7 fold
  Fold change RYR1: 2.5 fold
  Fold change SEC61G: 1.8 fold
  Fold change TM4SF20: −1.7 fold
  Fold change TMEM147-AS: −1.7 fold
  Fold change UGT1A7: −3.5 fold
  Fold change UGT1A9: −17.2 fold
[2]
  Fold change ACAD10: −1.7 fold
  Fold change H6PD (GDH): −1.6 fold
[3]
  Fold change KLK6: 25.83 fold
  Fold change SGK1: −1.7 fold
Vs si-NT-TTs, EXOSOMES
  Fold change CD9 (TSPAN29): 1.5 fold
  Fold change CD63 (TSPAN30): 3.5 fold
  Fold change CD274 (PD-L1): −1.9 fold
  Fold change CEACAM5 (CD66e): 2.2 fold
  Fold change EPCAM: 2.7 fold
  Fold change FSTL1: −1.8 fold
  Fold change GAS6: −1.7 fold
  Fold change GP1BA: −1.7 fold
  Fold change HSPG2 (Perlecan): −1.7 fold
  Fold change IGFBP7: −1.8 fold
  Fold change NID2: −2.1 fold
  Fold change RAB17: 1.9 fold
  Fold change TSPAN8: 1.6 fold
  Fold change TSPAN13: 1.8 fold
  Fold change VAMP8: 1.9 fold
Vs si-NT-TTs, EXOSOMES / METABOLISM RELATED ENZYMES
  Fold change CANT1: 1.5 fold
[4]
  Fold change ABI3BP (TARSH): −2.4 fold
  Fold change ADAMTS9: −2.2 fold
  Fold change BMP2: −1.8 fold
  Fold change BMPER: −1.7 fold
  Fold change CCBE1: −2.7 fold
  Fold change COL4A1: −2.2 fold
  Fold change COL4A2: −1.8 fold
  Fold change COL5A1: −1.5 fold
  Fold change COL12A1: −1.5 fold
  Fold change COL17A1 (BP180): 2.1 fold
  Fold change EDIL3 (Del1): −2.5 fold
